One assay deals with T1, phosphorylated c-MET (Homo sapiens, UniProt P08581).
T1 construct: endogenous in cells; host or cells: MKN45
The experiment in a line: c-MET cell mechanistic assay (phosphorylated c-MET in MKN45 cells). The format is cell-based. As to conditions: MKN45 cell line, four hours incubation, phosphorylated c-MET levels, at least duplicate experiments; read-out: Met mech IC50. The method, then: The cellular activity of the compounds of the present invention may be determined by the following procedure. MKN45 cells were plated in Falcon 3072 96-well plates in growth media (RPMI, 10% FBS, 1% L-glutamine) at a density of 5000 cells/well and incubated at 37° C., 5% CO2 overnight. The following day, one-tenth volume of a 10× concentration of compounds was added to the wells in a 6-point dilution series. The dilutions series was composed of an initial 1:5 dilution in DMSO, followed by a 1:10 dilution in growth media, for a final DMSO concentration on cells of 0.5%. Control wells were treated with 0.5% DMSO. The typical range of dilution was 10 μM to 3 nM. Once compound was added to the cells, plates were incubated for four hours at 37° C., 5% CO2. Plates were then washed in PBS, and lysed in triton-based lysis buffer. Lysates were transferred to a precoated capture plate made by Biosource (Cat # KH00281). The phosphorylated c-MET levels were measured by incubating with a rabbit polyclonal antibody against phosphorylated c-MET ([pYpYpY1230/1234/1235]) followed by an anti-rabbit antibody conjugated to HRP. Signal was measured on a Wallac Victor plate reader at 450 nm. The DMSO signal of the control wells was defined as 100% and the percent of inhibition of phosphorylated c-Met was expressed as percent of control. IC50 values were determined from the percent of control data using a standard four-parameter model.
The IC50 values of exemplary compounds of the present invention determined in a c-MET cell mechanistic assay using the MKN45 cell line according to the procedures described herein in at least duplicate experiments are abbreviated as follows and are shown in Table 3: A, IC50≦0.1 μM; B, 0.1 μM<IC50≦1 μM; C, 1 μM<IC50≦10 μM; D, IC50>10 μM; ND, not determined. The Example # of Table 3 corresponds to the compound example number as illustrated in the Examples section.

The next assay deals with MKN45 cells. The experiment in a line: MKN45 cell proliferation assay (CellTiter-Glo). The format is cell-based. Conditions: MKN45 cell line, 3 days incubation, at least duplicate experiments, read-out: Prolif. IC50. The method, then:
The effect of inhibitors on the proliferation of MKN45 cells was determined using the following protocol. MKN45 cells were plated in Corning 3917 96-well white tissue culture treated plates in growth medium (RPMI, 10% FCS) at a density of 5000 cells/well in a total volume of 135 μL and incubated at 37° C., 5% CO2, 95% humidity overnight. The following day, one-tenth volume of a 10× concentration of compounds was added to the wells in an 8-point dilution series. The dilution series was composed of an initial 1:5 dilution of a 10 mM stock of compound in DMSO, followed by serial 1:4 dilutions in DMSO, then a 1:20 dilution in growth medium prior to the 1:10 dilution into the cell plate. Final DMSO concentration on the cells was 0.1%, there were control wells treated with both 0.1% DMSO and no DMSO. The typical dilution range is 10 μM to 0.6 nM. Once the compound was added to the cells, plates were incubated for 3 days at 37° C., 5% CO2 at 95% humidity. On the third day, after allowing all cells and reagents to come to room temperature, 25 μL of CellTiter-Glo reagent (Promega # G7573) was added to the wells. Plates were shaken on a platform for 10 minutes prior to reading luminescence for 0.1 seconds. The signal of the control wells was taken as 100% growth and growth inhibition was expressed as percent of control. IC50 values were determined from the percent of control data using a standard four-parameter model.
The IC50 values of exemplary compounds of the present invention determined in a cell proliferation assay using the MKN45 cell line according to the procedures described herein in at least duplicate experiments are abbreviated as follows and are shown in Table 2: A, IC50≦0.1 μM; B, 0.1 μM<IC50≦1 μM; C, 1 μM<IC50≦10 μM; D, IC50>10 μM; ND, not determined. The Example # of Table 2 corresponds to the compound example number as illustrated in the Examples section.

Like-named read-outs stand apart in the source and are kept apart here.

T1 sequence (P08581 25-1390): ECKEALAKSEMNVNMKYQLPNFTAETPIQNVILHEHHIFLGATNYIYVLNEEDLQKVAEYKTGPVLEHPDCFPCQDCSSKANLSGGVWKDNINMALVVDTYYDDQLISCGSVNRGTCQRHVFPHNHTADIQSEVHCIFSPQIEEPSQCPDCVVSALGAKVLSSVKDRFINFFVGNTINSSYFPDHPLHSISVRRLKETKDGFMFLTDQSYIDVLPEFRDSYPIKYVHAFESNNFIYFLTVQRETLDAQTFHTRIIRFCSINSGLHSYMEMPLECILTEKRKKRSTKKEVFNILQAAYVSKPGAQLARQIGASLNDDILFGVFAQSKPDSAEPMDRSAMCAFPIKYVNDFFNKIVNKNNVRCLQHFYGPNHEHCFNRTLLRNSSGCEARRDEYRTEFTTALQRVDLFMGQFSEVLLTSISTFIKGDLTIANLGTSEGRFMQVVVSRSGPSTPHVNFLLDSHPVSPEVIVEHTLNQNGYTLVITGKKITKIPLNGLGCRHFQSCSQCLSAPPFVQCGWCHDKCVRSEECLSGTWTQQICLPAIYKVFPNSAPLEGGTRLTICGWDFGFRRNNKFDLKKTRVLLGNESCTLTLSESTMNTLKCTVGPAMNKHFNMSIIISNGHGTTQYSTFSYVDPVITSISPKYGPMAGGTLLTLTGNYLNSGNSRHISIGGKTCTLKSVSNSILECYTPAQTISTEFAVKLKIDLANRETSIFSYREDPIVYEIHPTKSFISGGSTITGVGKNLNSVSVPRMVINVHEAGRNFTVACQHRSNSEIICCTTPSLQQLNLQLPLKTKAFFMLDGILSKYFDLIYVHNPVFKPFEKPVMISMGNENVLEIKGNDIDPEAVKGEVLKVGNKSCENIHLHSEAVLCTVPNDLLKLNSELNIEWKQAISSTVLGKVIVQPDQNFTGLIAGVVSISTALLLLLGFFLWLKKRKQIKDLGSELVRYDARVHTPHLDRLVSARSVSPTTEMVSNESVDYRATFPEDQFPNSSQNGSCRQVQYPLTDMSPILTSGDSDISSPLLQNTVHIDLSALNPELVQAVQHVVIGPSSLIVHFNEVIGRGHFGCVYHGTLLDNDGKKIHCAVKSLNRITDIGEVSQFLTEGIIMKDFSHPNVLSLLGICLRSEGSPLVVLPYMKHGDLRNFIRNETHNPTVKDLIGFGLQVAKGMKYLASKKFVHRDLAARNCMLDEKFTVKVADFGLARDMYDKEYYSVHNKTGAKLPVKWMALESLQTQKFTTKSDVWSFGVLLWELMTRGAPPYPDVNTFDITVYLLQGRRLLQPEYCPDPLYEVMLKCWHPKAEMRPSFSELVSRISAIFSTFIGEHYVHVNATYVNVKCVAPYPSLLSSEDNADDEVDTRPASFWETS

What is called IC50 is the concentration needed to halve the response being measured. “2-(4-{3-[(S)-1-(2,6-Dichloro-3-fluorophenyl)ethyl]-1H-pyrrolo[2,3-b]-pyridin-5-yl}-pyrazol-1-yl)-acetamide [Example 75]”: the values for the 50% inhibitory concentration (IC50) on phosphorylated c-MET and in the assay on MKN45 cells were ≤ 100 nM and 100 to 1000 nM, respectively. For the compound `CC(c1c(Cl)ccc(F)c1Cl)c1c[nH]c2ncc(-c3ccc(C(=O)N(C)C)cc3)cc12` (centres unmarked) [Example 3, 4-{3-[1-(2,6-Dichloro-3-fluorophenyl)ethyl]-1H-pyrrolo[2,3-b]pyridin-5-yl}-N,N-dimethylbenzamide], the IC50 on phosphorylated c-MET lay in the range of 100 to 1000 nM; in the assay with MKN45 cells (Homo sapiens, MKN-45, 72 h), 100 to 1000 nM. As to `CC(c1c(Cl)ccc(F)c1Cl)c1c[nH]c2ncc(-c3ccc(C(=O)N4CCCC4)cc3)cc12` (centres unmarked) [Example 4, (4-{3-[1-(2,6-Dichloro-3-fluorophenyl)ethyl]-1H-pyrrolo[2,3-b]pyridin-5-yl}phenyl)pyrrolidin-1-ylmethanone], the 50% inhibitory concentration (IC50) on phosphorylated c-MET lay in the range of 100 to 1000 nM; in the assay with MKN45 cells (Homo sapiens, MKN-45, 72 h) it was 100 to 1000 nM.

As for `CNC(=O)c1ccc(-c2cnc3[nH]cc(C(C)c4c(Cl)ccc(F)c4Cl)c3c2)cc1` (centres unmarked) [Example 5, 4-{3-[1-(2,6-Dichloro-3-fluorophenyl)ethyl]-1H-pyrrolo[2,3-b]pyridin-5-yl}-N-methylbenzamide], the half-maximal inhibitory concentration (IC50) lay in the range of 100 to 1000 nM on phosphorylated c-MET and 100 to 1000 nM with MKN45 cells (Homo sapiens, MKN-45, 72 h).

For the compound `COCCNC(=O)c1ccc(-c2cnc3[nH]cc(C(C)c4c(Cl)ccc(F)c4Cl)c3c2)cc1` (centres unmarked) [Example 6, 4-{3-[1-(2,6-Dichloro-3-fluorophenyl)ethyl]-1H-pyrrolo[2,3-b]pyridin-5-yl}-N-(2-methoxyethyl)benzamide], the concentration for half-maximal inhibition (IC50) lay within 100 to 1000 nM at phosphorylated c-MET and 1000 to 10000 nM in the assay with MKN45 cells (Homo sapiens, MKN-45, 72 h). In the same order, the values of `CC(c1c(Cl)ccc(F)c1Cl)c1c[nH]c2ncc(-c3ccc(C(=O)NCCN4CCOCC4)cc3)cc12` (centres unmarked) [Example 7, 4-{3-[1-(2,6-Dichloro-3-fluorophenyl)ethyl]-1H-pyrrolo[2,3-b]pyridin-5-yl}-N-(2-morpholin-4-ylethyl)benzamide] are 100 to 1000 nM and 100 to 1000 nM. With `CC(c1c(Cl)ccc(F)c1Cl)c1c[nH]c2ncc(-c3ccc(O)cc3)cc12` (centres unmarked) [Example 8, 4-{3-[1-(2,6-Dichloro-3-fluorophenyl)ethyl]-1H-pyrrolo[2,3-b]pyridin-5-yl}phenol], the 50% inhibitory concentration (IC50) with MKN45 cells (Homo sapiens, MKN-45, 72 h) was 1000 to 10000 nM. On the same count and under the same terms, the figure for `CC(c1c(Cl)ccc(F)c1Cl)c1c[nH]c2ncc(-c3ccsc3)cc12` (centres unmarked) [Example 9, 3-[1-(2,6-Dichloro-3-fluorophenyl)ethyl]-5-thiophen-3-yl-1H-pyrrolo[2,3-b]pyridine] is 1000 to 10000 nM. As for `CC(=O)Nc1ccc(-c2cnc3[nH]cc(C(C)c4c(Cl)ccc(F)c4Cl)c3c2)cc1` (centres unmarked) [Example 10, N-(4-{3-[1-(2,6-Dichloro-3-fluorophenyl)ethyl]-1H-pyrrolo[2,3-b]pyridin-5-yl}phenyl)acetamide], the IC50 in the assay with MKN45 cells (Homo sapiens, MKN-45, 72 h) was 1000 to 10000 nM. For the compound `CC(c1c(Cl)ccc(F)c1Cl)c1c[nH]c2ncc(-c3ccc(N(C)C)cc3)cc12` (centres unmarked) [Example 11, (4-{3-[1-(2,6-Dichloro-3-fluorophenyl)ethyl]-1H-pyrrolo[2,3-b]pyridin-5-yl}phenyl)dimethylamine], in the assay with MKN45 cells (Homo sapiens, MKN-45, 72 h), the IC50 lay within 1000 to 10000 nM. As for `CC(c1c(Cl)ccc(F)c1Cl)c1c[nH]c2ncc(-c3cncnc3)cc12` (centres unmarked) [Example 12, 3-[1-(2,6-Dichloro-3-fluorophenyl)ethyl]-5-pyrimidin-5-yl-1H-pyrrolo[2,3-b]pyridine], in the assay with MKN45 cells (Homo sapiens, MKN-45, 72 h), the IC50 was 1000 to 10000 nM. Take `CC(c1c(Cl)ccc(F)c1Cl)c1c[nH]c2ncc(-c3ccc(C(=O)N4CCOCC4)cc3)cc12` (centres unmarked) [Example 13, (4-{3-[1-(2,6-Dichloro-3-fluorophenyl)ethyl]-1H-pyrrolo[2,3-b]pyridin-5-yl}phenyl)morpholin-4-ylmethanone]: the IC50 at phosphorylated c-MET was 100 to 1000 nM; in the assay with MKN45 cells (Homo sapiens, MKN-45, 72 h), 100 to 1000 nM. With `CC(c1c(Cl)ccc(F)c1Cl)c1c[nH]c2ncc(-c3ccc(C(N)=O)cc3)cc12` (centres unmarked) [Example 14, 4-{3-[1-(2,6-Dichloro-3-fluorophenyl)ethyl]-1H-pyrrolo[2,3-b]pyridin-5-yl}benzamide], the IC50 in the assay on MKN45 cells (Homo sapiens, MKN-45, 72 h) fell in the range of 1000 to 10000 nM. On to `CC(c1c(Cl)ccc(F)c1Cl)c1c[nH]c2ncc(-c3ccc(C(=O)N4CCN(C)CC4)cc3)cc12` (centres unmarked) [Example 15, (4-{3-[1-(2,6-Dichloro-3-fluorophenyl)ethyl]-1H-pyrrolo[2,3-b]pyridin-5-yl}phenyl)-(4-methylpiperazin-1-yl)methanone], for which the IC50 was ≤ 100 nM on phosphorylated c-MET and 100 to 1000 nM in the assay on MKN45 cells (Homo sapiens, MKN-45, 72 h). With `CC(c1c(Cl)ccc(F)c1Cl)c1c[nH]c2ncc(-c3ccc(N4CCN(C)CC4)cc3)cc12` (centres unmarked) [Example 16, 3-[1-(2,6-Dichloro-3-fluorophenyl)ethyl]-5-[4-(4-methylpiperazin-1-yl)phenyl]-1H-pyrrolo[2,3-b]pyridine], the IC50 in the assay on MKN45 cells (Homo sapiens, MKN-45, 72 h) was in the range of 100 to 1000 nM. The same measure, in the same setting: then `CC(c1c(Cl)ccc(F)c1Cl)c1c[nH]c2ncc(-c3ccc(NS(C)(=O)=O)cc3)cc12` (centres unmarked) [Example 17, N-(4-{3-[1-(2,6-Dichloro-3-fluorophenyl)ethyl]-1H-pyrrolo[2,3-b]pyridin-5-yl}phenyl)methanesulfonamide], with 1000 to 10000 nM. For the compound `CC(c1c(Cl)ccc(F)c1Cl)c1c[nH]c2ncc(-c3ccc(N)cc3)cc12` (centres unmarked) [Example 18, 4-{3-[1-(2,6-Dichloro-3-fluorophenyl)ethyl]-1H-pyrrolo[2,3-b]pyridin-5-yl}phenylamine], the half-maximal inhibitory concentration (IC50) was in the range of 100 to 1000 nM at phosphorylated c-MET and 100 to 1000 nM with MKN45 cells (Homo sapiens, MKN-45, 72 h). On to `CC(c1c(Cl)ccc(F)c1Cl)c1c[nH]c2ncc(-c3ccccc3)cc12` (centres unmarked) [Example 19, 3-[1-(2,6-Dichloro-3-fluorophenyl)ethyl]-5-phenyl-1H-pyrrolo[2,3-b]-pyridine], for which the 50% inhibitory concentration (IC50) is 1000 to 10000 nM at phosphorylated c-MET and > 10000 nM in the assay on MKN45 cells (Homo sapiens, MKN-45, 72 h).

With `CC(c1c(Cl)ccc(F)c1Cl)c1c[nH]c2ncc(-c3ccc(C(=O)NCCN(C)C)cc3)cc12` (centres unmarked) [Example 20, 4-{3-[1-(2,6-Dichloro-3-fluorophenyl)ethyl]-1H-pyrrolo[2,3-b]pyridin-5-yl}-N-(2-dimethylaminoethyl)benzamide], the IC50 at phosphorylated c-MET fell in the range of 100 to 1000 nM; with MKN45 cells (Homo sapiens, MKN-45, 72 h), 100 to 1000 nM.

`CC(c1c(Cl)ccc(F)c1Cl)c1c[nH]c2ncc(-c3ccc(C(=O)NC4CCCCC4)cc3)cc12` (centres unmarked) [Example 21, N-Cyclohexyl-4-{3-[1-(2,6-dichloro-3-fluorophenyl)ethyl]-1H-pyrrolo[2,3-b]pyridin-5-yl}benzamide]: the half-inhibitory concentration (IC50) in the assay on MKN45 cells (Homo sapiens, MKN-45, 72 h) lay within 1000 to 10000 nM. Consider `CC(c1c(Cl)ccc(F)c1Cl)c1c[nH]c2ncc(-c3ccc(S(=O)(=O)N(C)C)cc3)cc12` (centres unmarked) [Example 22, 4-{3-[1-(2,6-Dichloro-3-fluorophenyl)ethyl]-1H-pyrrolo[2,3-b]pyridin-5-yl}-N,N-dimethylbenzenesulfonamide], for which the IC50 fell in the range of 1000 to 10000 nM at phosphorylated c-MET and 1000 to 10000 nM in the assay with MKN45 cells (Homo sapiens, MKN-45, 72 h). With `CC(c1c(Cl)ccc(F)c1Cl)c1c[nH]c2ncc(-c3ccc(N4CCOCC4)cc3)cc12` (centres unmarked) [Example 25, 3-[1-(2,6-Dichloro-3-fluorophenyl)ethyl]-5-(4-morpholin-4-ylphenyl)-1H-pyrrolo[2,3-b]pyridine], in the assay on MKN45 cells (Homo sapiens, MKN-45, 72 h), the IC50 lay within 100 to 1000 nM.

In the case of `C[C@H](c1c(Cl)ccc(F)c1Cl)c1c[nH]c2ncc(-c3cnn([C@H]4CC[C@@H](O)CC4)c3)cc12` [Example 87, cis-4-(4-{3-[(1S)-1-(2,6-dichloro-3-fluorophenyl)ethyl]-1H-pyrrolo[2,3-b]pyridin-5-yl}-1H-pyrazol-1-yl)cyclohexanol], the concentration for half-maximal inhibition (IC50) at phosphorylated c-MET was ≤ 100 nM.

For the origin of these results see patent US8592448B2 (OSI Pharmaceuticals, LLC, priority 2008, dated 2013).
